Legend:
Assay in all cases: Bliss excess, mean over the matrix (fraction); higher = more synergy
[1] = test system: KP-2 (Pancreatic Carcinoma)
Summary of the method: (§1)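 Cell lines grown in DMEM/F12 or RPMI with 10% FBS were plated in 1536-well plates and held 24 hours at 37°C, 5% CO2 before 72 hours of exposure to two-drug dose matrices, with DMSO typically at 0.2%. CellTiter-Glo 2.0 luminescence gave viability, which was converted to inhibition. Vehicle wells were set to 0 and blank wells to 1. Combination Emax is the second-highest inhibition in the matrix, and Bliss excess is the observed combination effect minus the expected EA + EB − EA·EB, where EA and EB are the single-agent effects.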

[2] = test system: HC-1 (Other Blood Carcinomas)
Summary of the method: as §1

[3] = test system: JHH-7 (Hepatocellular Carcinoma)
Summary of the method: as §1

EW-3 (Ewing's Sarcoma) = test system: EW-3 (Ewing's Sarcoma)
Summary of the method: as §1

[4] = test system: KLE (Endometrial Carcinoma)
Summary of the method: as §1

[5] = test system: OCUB-M (Breast Carcinoma)
Summary of the method: as §1

[6] = test system: SCC-3 (B-Cell Non-Hodgkin's Lymphoma)
Summary of the method: as §1

A704 (Kidney Carcinoma) = test system: A704 (Kidney Carcinoma)
Summary of the method: as §1

[7] = test system: MFE-319 (Endometrial Carcinoma)
Summary of the method: as §1

[8] = test system: HuP-T3 (Pancreatic Carcinoma)
Summary of the method: as §1

[9] = test system: TGBC11TKB (Gastric Carcinoma)
Summary of the method: as §1

[10] = test system: KU-19-19 (Bladder Carcinoma)
Summary of the method: as §1

[11] = test system: DG-75 (Burkitt's Lymphoma)
Summary of the method: as §1

U-87-MG (Glioblastoma) = test system: U-87-MG (Glioblastoma)
Summary of the method: as §1

SMILES	Bliss excess [1]	Bliss excess [2]	Bliss excess [3]	Bliss excess (EW-3 (Ewing's Sarcoma))	Bliss excess [4]	Bliss excess [5]	Bliss excess [6]	Bliss excess (A704 (Kidney Carcinoma))	Bliss excess [7]	Bliss excess [8]	Bliss excess [9]	Bliss excess [10]	Bliss excess [11]	Bliss excess (U-87-MG (Glioblastoma))
COc1nnc2ccc(N3CCC(c4ccc(OCCN5CCN(C)C(=O)[C@H]5C)cc4)CC3)nn12 [AZD5153] + CCN(CCO)CCCOc1ccc2c(Nc3cc(CC(=O)Nc4cccc(F)c4)[nH]n3)ncnc2c1 [AZD2811] (first compound max 1 µM, 7x7, partner max 1 µM)	-0.0065	-0.0099	-0.0696	-0.115	-0.0704	-0.133	0.0474	0.0278	-0.085	-0.0306	-0.0962	-0.0741	0.0144	0.0005
CN(CCO)CC[C@H](CSc1ccccc1)Nc1ccc(S(=O)(=O)NC(=O)c2ccc(N3CCC([C@@H](O)c4ccccc4-c4ccc(Cl)cc4)CC3)cc2)cc1S(=O)(=O)C(F)(F)F [AZD4320] + C[C@@H](Nc1cc(F)cc(F)c1)c1cc(C(=O)N(C)C)cc2c(=O)cc(N3CCOCC3)oc12 [AZD8186] (first compound max 1 µM, 7x7, partner max 3 µM)	0.0419	0.0252	0.0257	-0.0324	0.0304	0.0137	0.0118	-0.117	0.0048	0.038	-0.0032	0.0039	0.0548	0.0472
C[C@@H](c1ccc2nccn2c1)n1nnc2ncc(-c3cnn(C)c3)nc21 [Savolitinib] + Cc1c2c(nn1C)CSCc1cc(n(C)n1)CSc1cc(c3ccccc3c1)OCCCc1c(C(=O)O)n(C)c3c-2c(Cl)ccc13 [AZD5991] (first compound max 1 µM, 7x7, partner max 1 µM)	-0.0468	-0.0199	-0.0404	-0.0011	-0.0822	-0.0393	0.0239	-0.0508	-0.0751	-0.0526	-0.0197	-0.0494	-0.0204	-0.0347
COc1nnc2ccc(N3CCC(c4ccc(OCCN5CCN(C)C(=O)[C@H]5C)cc4)CC3)nn12 [AZD5153] + C[C@@H]1COCCN1C2=NC(=NC(=C2)C3(CC3)[S@](=N)(=O)C)C4=C5C=CNC5=NC=C4 [AZD6738] (first compound max 1 µM, 7x7, partner max 10 µM)	0.0565	-0.0468	0.04	-0.0647	-0.0287	0.0415	-0.0195	-0.0278	-0.0852	-0.0119	-0.046	-0.0645	-0.0203	0.0506
CC1(C)CCC(CN2CCN(c3ccc(C(=O)NS(=O)(=O)c4ccc(NCC5CCOCC5)c([N+](=O)[O-])c4)c(Oc4cnc5[nH]ccc5c4)c3)CC2)=C(c2ccc(Cl)cc2)C1 [Venetoclax] + CCN(CCO)CCCOc1ccc2c(Nc3cc(CC(=O)Nc4cccc(F)c4)[nH]n3)ncnc2c1 [AZD2811] (first compound max 1 µM, 7x7, partner max 1 µM)	-0.0247	0.177	0.0033	0.0634	-0.0629	-0.049	0.0418	-0.0365	0.0015	-0.0309	0.0287	-0.059	-0.0104	-0.0009
Cc1c2c(nn1C)CSCc1cc(n(C)n1)CSc1cc(c3ccccc3c1)OCCCc1c(C(=O)O)n(C)c3c-2c(Cl)ccc13 [AZD5991] + C=CCn1c(=O)c2cnc(Nc3ccc(N4CCN(C)CC4)cc3)nc2n1-c1cccc(C(C)(C)O)n1 [AZD1775] (first compound max 1 µM, partner max 1 µM)	0.0069	0.0432	0.0348	0.017	-0.0616	0.034	0.0088	-0.0506	0.0074	-0.0454	-0.0383	-0.0518	-0.0098	0.0392
Cc1c2c(nn1C)CSCc1cc(n(C)n1)CSc1cc(c3ccccc3c1)OCCCc1c(C(=O)O)n(C)c3c-2c(Cl)ccc13 [AZD5991] + Cc1cc2ncnn2cc1Nc1ncc2c(n1)n(C1CCOCC1)c(=O)n2C [AZD7648] (first compound max 1 µM, 7x7, partner max 10 µM)	-0.0103	-0.024	-0.0598	-0.0626	-0.0598	-0.0448	-0.0119	-0.0914	-0.0534	-0.0677	-0.0954	0.0025	0.0116	-0.0311
CN(CCO)CC[C@H](CSc1ccccc1)Nc1ccc(S(=O)(=O)NC(=O)c2ccc(N3CCC([C@@H](O)c4ccccc4-c4ccc(Cl)cc4)CC3)cc2)cc1S(=O)(=O)C(F)(F)F [AZD4320] + CCN(CCO)CCCOc1ccc2c(Nc3cc(CC(=O)Nc4cccc(F)c4)[nH]n3)ncnc2c1 [AZD2811] (first compound max 1 µM, 7x7, partner max 1 µM)	0.0653	0.173	-0.0085	0.0814	-0.0207	0.0283	-0.0063	-0.0659	0.0841	-0.0384	0.0198	0.0207	-0.0224	-0.019
Cn1cnc2c(F)c(Nc3ccc(Br)cc3Cl)c(C(=O)NOCCO)cc21 [Selumetinib] + C[C@@H]1COCCN1C2=NC(=NC(=C2)C3(CC3)[S@](=N)(=O)C)C4=C5C=CNC5=NC=C4 [AZD6738] (first compound max 10 µM, 7x7, partner max 10 µM)	0.121	-0.0743	-0.0073	-0.0489	0.01	-0.0604	0.0368	-0.039	0.0065	0.048	0.0232	-0.0147	-0.0328	0.0075
Cn1cnc2c(F)c(Nc3ccc(Br)cc3Cl)c(C(=O)NOCCO)cc21 [Selumetinib] + C=CCn1c(=O)c2cnc(Nc3ccc(N4CCN(C)CC4)cc3)nc2n1-c1cccc(C(C)(C)O)n1 [AZD1775] (first compound max 10 µM, partner max 1 µM)	0.0088	-0.0702	-0.0198	-0.0564	-0.0117	-0.0399	0.0092	-0.0211	-0.0715	0.0194	-0.0163	-0.0308	-0.0637	-0.0685
Cc1nc(Nc2ncc(C(=O)Nc3c(C)cccc3Cl)s2)cc(N2CCN(CCO)CC2)n1 [Dasatinib] + CC(=O)Nc1cccc(-n2c(=O)n(C3CC3)c(=O)c3c(Nc4ccc(I)cc4F)n(C)c(=O)c(C)c32)c1 [Trametinib] (first compound max 2 µM, 7x7, partner max 1 µM)	0.136	-0.0813	-0.0394	-0.0576	-0.0052	-0.0384	-0.0403	0.0541	-0.108	0.0459	-0.103	0.0906	0.0387	-0.0575
CN(CCO)CC[C@H](CSc1ccccc1)Nc1ccc(S(=O)(=O)NC(=O)c2ccc(N3CCC([C@@H](O)c4ccccc4-c4ccc(Cl)cc4)CC3)cc2)cc1S(=O)(=O)C(F)(F)F [AZD4320] + C[C@@H]1COCCN1C2=NC(=NC(=C2)C3(CC3)[S@](=N)(=O)C)C4=C5C=CNC5=NC=C4 [AZD6738] (first compound max 1 µM, 7x7, partner max 10 µM)	-0.104	0.0127	0.0174	-0.0236	-0.0709	0.0055	0.014	-0.0084	-0.0119	-0.0695	0.0135	-0.0381	-0.0217	-0.0248
CC1(C)CCC(CN2CCN(c3ccc(C(=O)NS(=O)(=O)c4ccc(NCC5CCOCC5)c([N+](=O)[O-])c4)c(Oc4cnc5[nH]ccc5c4)c3)CC2)=C(c2ccc(Cl)cc2)C1 [Venetoclax] + C[C@@H](Nc1cc(F)cc(F)c1)c1cc(C(=O)N(C)C)cc2c(=O)cc(N3CCOCC3)oc12 [AZD8186] (first compound max 1 µM, 7x7, partner max 3 µM)	-0.0312	0.0693	-0.0516	0.0336	0.0002	-0.0082	0.0263	-0.0162	-0.0419	-0.0275	-0.0067	-0.0402	0.0255	-0.117
NC1(C(=O)N[C@@H](CCO)c2ccc(Cl)cc2)CCN(c2ncnc3[nH]ccc23)CC1 [Capivasertib] + COc1nnc2ccc(N3CCC(c4ccc(OCCN5CCN(C)C(=O)[C@H]5C)cc4)CC3)nn12 [AZD5153] (first compound max 10 µM, 7x7, partner max 1 µM)	0.0358	0.0365	0.0156	0.0429	-0.0329	0.0223	0.0248	0.0204	0.0499	-0.0395	-0.0144	0.0272	-0.0133	0.0526
